Assay results taken from patent US20230028441A1, “NOVEL HETEROARYL-TRIAZOLE COMPOUNDS AS PESTICIDES” (Bayer Aktiengesellschaft, priority 2019, published 2023).

Assays:
Type in all cases: in vivo
[1] = test system: larvae of the southern green stink bug (Nezara viridula); test: Nezara viridula spray test; conditions: in Hordeum vulgare, 96 h
Method in brief: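 Percent mortality of southern green stink bug larvae read 4 days after spraying infested Hordeum vulgare. Test solutions: compound in acetone plus dimethylformamide, diluted with emulsifier-containing water (1000 ppm alkylarylpolyglycol ether).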

[2] = test system: adult unfed cat fleas (Ctenocephalides felis); test: Ctenocephalides felis oral test; conditions: 48 h, 100 ppm in cattle blood, after 2 days
Experimental: Solvent: dimethyl sulfoxide
To produce a suitable preparation of active compound, 10 mg of active compound are dissolved in 0.5 mL solvent, and the concentrate is diluted with cattle blood to the desired concentration.
Approximately 20 adult unfed cat fleas (Ctenocephalides felis) are placed in flea chambers. The blood chamber, sealed with parafilm on the bottom, are filled with cattle blood supplied with compound solution and placed on the gauze covered top of the flea chamber, so that the fleas are able to suck the blood. The blood chamber is heated to 37° C. whereas the flea chamber is kept at room temperature.
After 2 days mortality in % is determined. 100% means all the fleas have been killed; 0% means none of the fleas have been killed.

[3] = test system: green peach aphid (Myzus persicae); test: Myzus persicae oral test; conditions: 120 h
Experimental: Solvent: 100 parts by weight acetone
To produce a suitable preparation of active compound, 1 part by weight of active compound is mixed with the stated amount of solvent, and the concentrate is diluted with water to the desired concentration.
50 μL compound solution is filled in microtiter plates and 150 μL IPL41 insect medium (33%+15% sugar) is added to obtain a total volume of 200 μL per well. Afterwards the plates are sealed with parafilm through which a mixed population of the green peach aphid (Myzus persicae) can suck on the compound preparation.
After 5 days mortality in % is determined. 100% means all aphids have been killed and 0% means none of the aphids have been killed.

[4] = test system: adult engorged female ticks (Rhipicephalus microplus); test: Rhipicephalus (Boophilus) microplus injection test; conditions: 168 h, egg deposition after 7 days, read-out: efficacy (infertile eggs); for pest or weed control at 0.004 mg: 4 μg/animal; for pest or weed control at 0.02 mg: 20 μg/animal
Method in brief: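 Efficacy is the share of infertile eggs: 100% means none are fertile, 0% means all are fertile. Egg deposition was checked 7 days after injecting 1 μL of DMSO-diluted compound into the abdomen of five engorged female R. microplus, with doubtful eggs kept about 42 days to hatching. The stock was 10 mg in 0.5 mL DMSO.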

[5] = test system: fall armyworm larvae (Spodoptera frugiperda); test: Spodoptera frugiperda spray test (maize leaf sections); conditions: 168 h
Method in brief: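 Percent kill of Spodoptera frugiperda larvae was recorded 7 days after infesting dried, treated maize leaf sections. Spray solutions were made from an acetone/DMF compound preparation diluted with 1000 ppm emulsifier-containing water.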

[6] = test system: cattle tick larvae (Rhipicephalus microplus), strain Parkhurst, resistant against synthetic pyrethroids; test: Rhipicephalus (Boophilus) microplus in-vitro contact test, larval cattle tick; conditions: 5 μg/cm^2 (=500 g/ha), after 48 hours, read-out: efficacy (larvae dead or moribund)
Experimental: (§1) 9 mg compound is solved in 1 mL acetone and diluted with acetone to the desired concentration. 250 μL of the test solution is filled in 25 mL glass test tubes and homogeneously distributed on the inner walls by rotation and tilting on a shaking device (2 h at 30 rpm). With a compound concentration of 900 ppm, an inner surface of 44.7 cm^2 and a homogeneous distribution, a dose of 5 μg/cm^2 is achieved.
After the solvent has evaporated, each test tube is filled with 20-50 cattle tick larvae (Rhipicephalus microplus), closed with a perforated lid and incubated in a horizontal position at 85% relative humidity and 27° C. in an incubator. After 48 hours efficacy is determined. The larvae are patted on the ground of the tubes and negative geotactic behaviour is recorded.
An efficacy of 100% means all larvae are dead or moribund; 0% means no larvae are dead or moribund.

[7] = test system: adult brown dog ticks (Rhipicephalus sanguineus); test: Rhipicephalus sanguineus in-vitro contact test with adult brown dog ticks; conditions: after 48 hours, read-out: efficacy (ticks dead or moribund)
Experimental: as §1
After the solvent has evaporated, each test tube is filled with 5-10 adult brown dog ticks (Rhipicephalus sanguineus), closed with a perforated lid and incubated in a lying position at room temperature and relative humidity. After 48 hours efficacy is determined. The ticks are patted on the ground of the tubes and are incubated on a heating plate at 45-50° C. for at most 5 minutes. Immotile or uncoordinated moving ticks, which are not able to escape the heat by climbing upwards, are marked as dead or moribund.
An efficacy of 100% means all ticks are dead or moribund; 0% means no ticks are dead or moribund.

[8] = test system: larvae of the banded cucumber beetle (Diabrotica balteata); test: Diabrotica balteata spray test; conditions: 168 h, 100 g/ha (=32 μg/well), after 7 days, wheat seeds, read-out: efficacy (seedlings grown up)
Method in brief: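 Efficacy (%) read at day 7: 100% means seedlings grew like untreated, uninfested controls; 0% means no seedlings grew. Wheat seeds germinated 1 day on agar, sprayed with emulsified compound solution (1000 ppm emulsifier in water), then each well infested with 10-20 larvae.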

[9] = test system: brown planthopper (Nilaparvata lugens); test: Nilaparvata lugens spray test; conditions: in Oryza sativa, 96 h
Experimental: Solvent: 78.0 parts by weight of acetone • • 1.5 parts by weight of dimethylformamide
Emulsifier: alkylarylpolyglycol ether
To produce a suitable preparation of active compound, 1 part by weight of active compound is mixed with the stated amount of solvents and is diluted with water, containing an emulsifier concentration of 1000 ppm, to the desired concentration. Further test concentrations are prepared by dilution with emulsifier containing water.
Rice plants (Oryza sativa) are sprayed with a preparation of the active ingredient of the desired concentration and the plants are infested with the brown planthopper (Nilaparvata lugens).
After 4 days mortality in % is determined. 100% means all planthoppers have been killed and 0% means none of the planthoppers have been killed.

| SMILES | mortality at 500 g/ha [1] [%] | mortality at 100 g/ha [5] [%] | pest or weed control at 32 µg/disc, 100 g/ha [8] [%] | mortality at 500 g/ha [9] [%] | further results |
| --- | --- | --- | --- | --- | --- |
| CC(=O)Nc1nc(C(C)NC(=O)c2cc(Cl)cc(S(C)(=O)=O)c2)n(-c2ccc(Cl)cn2)n1 (stereo not shown) [I-017] | 100 | – | – | – | mortality at 100 g/ha [1]: 90%; mortality at 100 ppm [2]: 100%; mortality at 4 ppm [3]: 100%; pest or weed control at 0.004 mg [4]: 100%; pest or weed control at 0.02 mg [4]: 100%; mortality at 500 g/ha [5]: 100% |
| CC(Cl)C(=O)Nc1nc(C(C)NC(=O)c2cc(Cl)cc(S(C)(=O)=O)c2)n(-c2ncccn2)n1 (stereo not shown) [I-019] | – | – | – | – | mortality at 100 g/ha [1]: 90%; mortality at 100 ppm [2]: 100%; mortality at 4 ppm [3]: 90%; pest or weed control at 0.004 mg [4]: 100% |
| CC(NC(=O)c1cc(Cl)cc(S(C)(=O)=O)c1)c1nc(CS(C)(=O)=O)nn1-c1ccc(Cl)cn1 (stereo not shown) [I-027, 3-chloro-N-[1-[2-(5-chloro-2-pyridyl)-5-(methylsulfonylmethyl)-1,2,4-triazol-3-yl]ethyl]-5-methylsulfonyl-benzamide] | 100 | – | – | – | mortality at 100 g/ha [1]: 100%; mortality at 100 ppm [2]: 100%; mortality at 4 ppm [3]: 100%; pest or weed control at 0.004 mg [4]: 80%; pest or weed control at 0.02 mg [4]: 100%; pest or weed control at 5 µg/cm2 [6]: 90% |
| CC(NC(=O)c1cc(Cl)cc(S(C)(=O)=O)c1)c1nc(-c2cnccn2)nn1-c1ncccn1 (stereo not shown) [I-045] | – | – | – | – | pest or weed control at 5 µg/cm2, 500 g/ha ([7]; 5 μg/cm^2 (=500 g/ha)): 80%; mortality at 100 ppm [2]: 100%; mortality at 4 ppm [3]: 90%; pest or weed control at 0.004 mg [4]: 100%; pest or weed control at 0.02 mg [4]: 100% |
| CNC(=O)c1nc(C(C)NC(=O)c2cc(Cl)cc(C(F)(F)F)c2)n(-c2ccc(C#N)cn2)n1 (stereo not shown) [I-079] | – | 100 | – | – | mortality at 100 ppm [2]: 100%; mortality at 4 ppm [3]: 100%; pest or weed control at 0.004 mg [4]: 100%; pest or weed control at 0.02 mg [4]: 100%; pest or weed control at 5 µg/cm2 [6]: 100% |
| CC(NC(=O)c1cc(Br)cc(C(F)(F)F)c1)c1nc(N)nn1-c1ncccn1 (stereo not shown) [I-093] | – | 83 | – | – | pest or weed control at 1 µg/cm2, 100 g/ha ([7]; 1 μg/cm^2 (=100 g/ha)): 80%; mortality at 100 ppm [2]: 90%; mortality at 4 ppm [3]: 100%; pest or weed control at 0.004 mg [4]: 100%; pest or weed control at 5 µg/cm2 [6]: 100% |
| CON(C)c1nc([C@H](C)NC(=O)c2cc(C(F)(F)F)cc(C(F)(F)F)c2)n(-c2ncccn2)n1 [I-149, N-[(1S)-1-[5-[methoxy(methyl)amino]-2-pyrimidin-2-yl-1,2,4-triazol-3-yl]ethyl]-3,5-bis(trifluoromethyl)benzamide] | 100 | 100 | 100 | 100 | – |
| CON(C)c1nc([C@H](C)NC(=O)c2cc(Br)cc(OC(F)(F)F)c2)n(-c2ncccn2)n1 [I-151] | 100 | 100 | 100 | 100 | – |
| CC(NC(=O)c1cc(Cl)cc(S(C)(=O)=O)c1)c1nc(N2CCOCC2)nn1-c1ccc(C#N)cn1 (stereo not shown) [I-160] | – | – | – | 100 | – |
| CNc1nc([C@H](C)NC(=O)c2cc(C(F)(F)F)cc(C(F)(F)F)c2)n(-c2ccc(C#N)cn2)n1 [I-168] | 100 | 100 | 100 | 100 | – |
| C[C@H](NC(=O)c1cc(Cl)cc(S(C)(=O)=O)c1)c1nc(N)nn1-c1ncccn1 [I-169] | 100 | – | – | 100 | – |
| CC(NC(=O)c1cc(Cl)cc(C(C)(C)C#N)c1)c1nc(N(C)C)nn1-c1ncc(Cl)cn1 (stereo not shown) [I-170] | 100 | 100 | 100 | 100 | – |
| C[C@H](NC(=O)c1cc(C(F)(F)F)cc(C(F)(F)F)c1)c1nc(N)nn1-c1ccc(C#N)cn1 [I-173] | 90 | 100 | 100 | 100 | – |
| C[C@H](NC(=O)c1cc(OC(F)(F)F)cc(C2CC2)c1)c1nc(N2CCOCC2)nn1-c1ccc(C#N)cn1 [I-174] | – | – | 100 | 100 | – |
| C[C@H](NC(=O)c1cc(C(F)(F)F)cc(C(F)(F)F)c1)c1nc(N2CCOCC2)nn1-c1ccc(C#N)cn1 [I-175] | – | 100 | 100 | 100 | – |
| CNc1nc([C@H](C)NC(=O)c2cc(OC(F)(F)F)cc(S(=O)(=O)C(C)C)c2)n(-c2ncccn2)n1 [I-181] | – | – | – | 100 | – |
| CNc1nc([C@H](C)NC(=O)c2cc(OC(F)(F)F)cc(S(=O)(=O)c3ccc(Cl)cc3)c2)n(-c2ncccn2)n1 [I-182] | – | 100 | 100 | 100 | – |
| CNc1nc([C@H](C)NC(=O)c2cc(OC(F)(F)F)cc(S(C)(=O)=O)c2)n(-c2ncccn2)n1 [I-185] | 100 | – | 100 | 100 | – |
| C[C@H](NC(=O)c1cc(OC(F)(F)F)cc(S(C)(=O)=O)c1)c1nc(N)nn1-c1ncccn1 [I-188] | 100 | – | – | 100 | – |
| CCS(=O)(=O)c1cc(C(=O)N[C@@H](C)c2nc(N)nn2-c2ncccn2)cc(C(F)(F)F)c1 [I-189] | 100 | – | – | 100 | – |
| C[C@H](NC(=O)c1cc(C(F)(F)F)cc(S(C)(=O)=O)c1)c1nc(N)nn1-c1ncccn1 [I-211] | 100 | – | – | 100 | – |
